The record followed here is patent publication US10219794B2, “Method of treating pleural abnormality” (National Taiwan University, priority 2014, dated 2019).

In this test the test system is TC-1 cell line (mouse lung cancer cell line). Type of test: cell-based. To be noted: TC-1 cells, released from PCL membrane. As for the experimental part:
In one embodiment, the drug release rates of different kinds of the biodegradable polymeric membrane were tested. There were 6 experimental groups and 1 control group. Control group: TCPS (Tissue Culture Polystyrene); experimental group 1: the non-porous PCL membrane without any drugs; experimental group 2: the non-porous PCL membrane with 1 μg/ml of Cisplatin (0.3 μg/well); experimental group 3: the non-porous PCL membrane with 10 μg/ml of Cisplatin (3 μg/well); experimental group 4: the porous PCL membrane without any drugs; experimental group 5: the porous PCL membrane with 1 μg/ml of Cisplatin (0.3 μg/well); and experimental group 6: the porous PCL membrane with 10 μg/ml of Cisplatin (3 μg/well). The pores of the above porous PCL membrane were created by 0.01 g/mL of NaCl.
In this embodiment, different kinds of membranes with drugs were cultured in TC-1 cell line (mouse lung cancer cell line) for three days, and the cell growth and cytotoxicity were measured by using AlamarBlue™. The absorbance was at 570 nm and 600 nm as the background.

Consider `N.N.[Cl][Pt][Cl]` [cisplatin], for which the killing cancer cells result was “capability of killing cancer cells”.
